From patent publication US20180186755A1, “LYSYL OXIDASE-LIKE 2 INHIBITORS AND USES THEREOF” (PharmAkea, Inc., priority 2015, published 2018)

Biological target: T1, human LOXL2 (Homo sapiens, UniProt Q9Y4K0)
T1 construct: expressed in transfected cells; 10-20x concentrated conditioned media used as the enzyme source
T1 sequence (Q9Y4K0 26-774): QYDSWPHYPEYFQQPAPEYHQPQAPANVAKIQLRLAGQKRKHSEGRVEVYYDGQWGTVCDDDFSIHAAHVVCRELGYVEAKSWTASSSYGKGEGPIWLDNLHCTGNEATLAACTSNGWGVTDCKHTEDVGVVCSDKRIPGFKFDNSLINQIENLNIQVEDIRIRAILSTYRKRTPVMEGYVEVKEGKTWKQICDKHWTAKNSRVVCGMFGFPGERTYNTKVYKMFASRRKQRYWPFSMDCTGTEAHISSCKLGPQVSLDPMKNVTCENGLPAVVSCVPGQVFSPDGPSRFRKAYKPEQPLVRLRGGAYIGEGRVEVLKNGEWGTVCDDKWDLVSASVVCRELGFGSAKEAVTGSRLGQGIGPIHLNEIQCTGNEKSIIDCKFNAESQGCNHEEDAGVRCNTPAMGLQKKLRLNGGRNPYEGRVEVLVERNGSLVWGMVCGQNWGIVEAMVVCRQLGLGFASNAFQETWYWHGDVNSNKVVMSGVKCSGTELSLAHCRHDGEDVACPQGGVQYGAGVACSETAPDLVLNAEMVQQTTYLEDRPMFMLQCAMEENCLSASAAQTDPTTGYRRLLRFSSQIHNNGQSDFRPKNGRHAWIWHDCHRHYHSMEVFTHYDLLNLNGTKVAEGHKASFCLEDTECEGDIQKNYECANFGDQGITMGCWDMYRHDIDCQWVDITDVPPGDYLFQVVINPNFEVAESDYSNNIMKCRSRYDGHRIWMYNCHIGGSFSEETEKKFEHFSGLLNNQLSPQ
Experiment: Human LOXL2 amine oxidase activity assay (Amplex Red fluorescence)
Type: biochemical
Conditions: concentrated conditioned media from CHO cells stably expressing human LOXL2; 2 h at 37° C. preincubation; DAP substrate
Experimental: Example B-1: Human LOXL2 Amine Oxidase Activity Assay
LOXL2 amine oxidase activity is evaluated by measuring Amplex Red fluorescence using 10-20× concentrated conditioned media from CHO cells stably expressing human LOXL2.
To assay for amine oxidase activity, 10 μL of the concentrated conditioned media is incubated with 2 μL of test compound in DMSO and 73 μL Assay Buffer (50 mM Borate Buffer, pH8) for 2 h at 37° C. After the 2 h incubation, 5 ul of 10 mM 1,5-Diaminopentane (DAP) diluted in Assay Buffer and 10 μl of Amplex Red Mix (8.5 μl Assay Buffer+0.5 μl of 10 mM Amplex Red+1 μl of 500 U/ml Horseradish Peroxidase) are added and the plate mixed and immediately placed on the FlexStaion for fluorescence measurements. Fluorescence is read in kinetic mode every 2 min for 1 hour at excitation=544 and emission=590. The amine oxidase activity is calculated from the slope of the linear portion of the curve.

Row | IC50 [µM] | SMILES
1 | < 0.1 | NCc1cc(Oc2cccc(C(=O)N3CCN(c4ncc(Cl)cc4Cl)CC3)c2)ncn1 [Compound 1-73, (3-((6-(Aminomethyl)pyrimidin-4-yl)oxy)phenyl)(4-(3,5-dichloropyridin-2-yl)piperazin-1-yl)methanone]
2 | < 0.1 | NCc1cc(Oc2cccc(C(=O)N3CCC(O)(C(F)(F)F)CC3)c2)ncn1 [Compound 1-74, (3-((6-(Aminomethyl)pyrimidin-4-yl)oxy)phenyl)(4-hydroxy-4-(trifluoromethyl)piperidin-1-yl)methanone]
3 | < 0.1 | C#C[C@H](CC(=O)OC)NC(=O)c1cccc(Oc2cc(CN)ncn2)c1 [Compound 1-75, (S)-Methyl 3-(3-((6-(aminomethyl)pyrimidin-4-yl)oxy)benzamido)pent-4-ynoate]
4 | < 0.1 | C#C[C@@H](CC(=O)OC)NC(=O)c1cccc(Oc2cc(CN)ncn2)c1 [Compound 1-76, (R)-Methyl 3-(3-((6-(aminomethyl)pyrimidin-4-yl)oxy)benzamido)pent-4-ynoate]
5 | < 0.1 | NCc1cc(OCc2cccc(C(=O)Nc3cccc(C(F)(F)F)c3)c2)ncn1 [Compound 1-77, 3-(((6-(Aminomethyl)pyrimidin-4-yl)oxy)methyl)-N-(3-(trifluoromethyl)phenyl)benzamide]
6 | < 0.1 | NCc1cc(OCc2cccc(C(=O)N[C@@H](CO)c3ccccc3)c2)ncn1 [Compound 1-78, (R)-3-(((6-(Aminomethyl)pyrimidin-4-yl)oxy)methyl)-N-(2-hydroxy-1-phenylethyl)benzamide]
7 | < 0.1 | NCc1cc(OCc2cccc(C(=O)NCc3cccnc3)c2)ncn1 [Compound 1-79, 3-(((6-(Aminomethyl)pyrimidin-4-yl)oxy)methyl)-N-(pyridin-3-ylmethyl)benzamide]
8 | < 0.1 | NCc1cc(OCc2cccc(C(=O)NCc3ccnc(Cl)c3)c2)ncn1 [Compound 1-80, 3-(((6-(Aminomethyl)pyrimidin-4-yl)oxy)methyl)-N-((2-chloropyridin-4-yl)methyl)benzamide]
9 | < 0.1 | NCc1cc(OCc2cccc(C(=O)NCc3cc4ccccc4s3)c2)ncn1 [Compound 1-81, 3-(((6-(Aminomethyl)pyrimidin-4-yl)oxy)methyl)-N-(benzo[b]thiophen-2-ylmethyl)benzamide]
10 | < 0.1 | NCc1cc(OCc2cccc(C(=O)NCc3cc4cc(F)ccc4s3)c2)ncn1 [Compound 1-82, 3-(((6-(Aminomethyl)pyrimidin-4-yl)oxy)methyl)-N-((5-fluorobenzo[b]thiophen-2-yl)methyl)benzamide]
11 | < 0.1 | NCc1cc(OCc2cccc(C(=O)NCc3nc4ccccc4o3)c2)ncn1 [Compound 1-83, 3-(((6-(Aminomethyl)pyrimidin-4-yl)oxy)methyl)-N-(benzo[d]oxazol-2-ylmethyl)benzamide]
12 | < 0.1 | NCc1cc(OCc2cccc(C(=O)NCc3cc4ccccc4[nH]3)c2)ncn1 [Compound 1-84, N-((1H-indol-2-yl)methyl)-3-(((6-(aminomethyl)pyrimidin-4-yl)oxy)methyl)benzamide]
13 | < 0.1 | NCc1cc(OCc2cccc(C(=O)NCc3cc4cc(F)ccc4[nH]3)c2)ncn1 [Compound 1-85, 3-(((6-(Aminomethyl)pyrimidin-4-yl)oxy)methyl)-N-((5-fluoro-1H-indol-2-yl)methyl)benzamide]
14 | < 0.1 | Cn1c(CNC(=O)c2cccc(COc3cc(CN)ncn3)c2)cc2ccccc21 [Compound 1-86, 3-(((6-(Aminomethyl)pyrimidin-4-yl)oxy)methyl)-N-((1-methyl-1H-indol-2-yl)methyl)benzamide]
15 | < 0.1 | NCc1cc(OCc2cccc(C(=O)NCc3cc4cccnc4[nH]3)c2)ncn1 [Compound 1-87, N-((1H-pyrrolo[2,3-b]pyridin-2-yl)methyl)-3-(((6-(aminomethyl)pyrimidin-4-yl)oxy)methyl)benzamide]
16 | < 0.1 | NCc1cc(OCc2cccc(C(=O)N3CCc4cccnc4C3)c2)ncn1 [Compound 1-88, (3-(((6-(Aminomethyl)pyrimidin-4-yl)oxy)methyl)phenyl)(5,6-dihydro-1,7-naphthyridin-7(8H)-yl)methanone]
17 | < 0.1 | Cc1n[nH]c2c1CN(C(=O)c1cccc(COc3cc(CN)ncn3)c1)CC2 [Compound 1-89, (3-(((6-(Aminomethyl)pyrimidin-4-yl)oxy)methyl)phenyl)(3-methyl-6,7-dihydro-1H-pyrazolo[4,3-c]pyridin-5(4H)-yl)methanone]

Row | IC50 [µM] | SMILES
18 | < 0.1 | NCc1cc(OCc2cccc(C(=O)N3CCc4c([nH]c5ncccc45)C3)c2)ncn1 [Compound 1-90, (3-(((6-(Aminomethyl)pyrimidin-4-yl)oxy)methyl)phenyl)(5H-pyrrolo[2,3-b:5,4-c′]dipyridin-7(6H,8H,9H)-yl)methanone]
19 | < 0.1 | NCc1cc(OCc2cccc(C(=O)N3CCN(c4ccccc4)CC3)c2)ncn1 [Compound 1-91, (3-(((6-(Aminomethyl)pyrimidin-4-yl)oxy)methyl)phenyl)(4-phenylpiperazin-1-yl)methanone]
20 | < 0.1 | NCc1cc(OCc2cccc(C(=O)N3CCc4cccnc43)c2)ncn1 [Compound 1-92, (3-(((6-(Aminomethyl)pyrimidin-4-yl)oxy)methyl)phenyl)(2,3-dihydro-1H-pyrrolo[2,3-b]pyridin-1-yl)methanone]
21 | < 0.1 | NCc1cc(OCc2cccc(C(=O)N3CCc4ccncc43)c2)ncn1 [Compound 1-93, (3-(((6-(Aminomethyl)pyrimidin-4-yl)oxy)methyl)phenyl)(2,3-dihydro-1H-pyrrolo[2,3-c]pyridin-1-yl)methanone]
22 | < 0.1 | NCc1cc(OCc2cccc(C(=O)N3CCC(O)(C(F)(F)F)CC3)c2)ncn1 [Compound 1-94, (3-(((6-(Aminomethyl)pyrimidin-4-yl)oxy)methyl)phenyl)(4-hydroxy-4-(trifluoromethyl)piperidin-1-yl)methanone]
23 | < 0.1 | NCc1cc(NCc2cccc(C(=O)Nc3cccc(C(F)(F)F)c3)c2)ncn1 [Compound 1-96, 3-(((6-(Aminomethyl)pyrimidin-4-yl)amino)methyl)-N-(3-(trifluoromethyl)phenyl)benzamide]
24 | < 0.1 | NCc1cc(NCc2cccc(C(=O)NCc3cc4ccccc4s3)c2)ncn1 [Compound 1-97, 3-(((6-(Aminomethyl)pyrimidin-4-yl)amino)methyl)-N-(benzo[b]thiophen-2-ylmethyl)benzamide]
25 | < 0.1 | NCc1cc(NCc2cccc(C(=O)NCc3sc4ccccc4c3Cl)c2)ncn1 [Compound 1-98, 3-(((6-(Aminomethyl)pyrimidin-4-yl)amino)methyl)-N-((3-chlorobenzo[b]thiophen-2-yl)methyl)benzamide]
26 | 0.1 to 1 | NCc1cc(-n2ccc3c(CO)cccc32)ncn1 [Compound 1-99, (1-(6-(Aminomethyl)pyrimidin-4-yl)-1H-indol-4-yl)methanol]
27 | 0.1 to 1 | NCc1cc(NCc2cccc(C(=O)N3CCN(c4ccccc4)CC3)c2)ncn1 [Compound 1-100, (3-(((6-(Aminomethyl)pyrimidin-4-yl)amino)methyl)phenyl)(4-phenylpiperazin-1-yl)methanone]
28 | < 0.1 | NCc1cc(Oc2cccc3c2CCC(=O)N3)ncn1 [Compound 1-101, 5-((6-(Aminomethyl)pyrimidin-4-yl)oxy)-3,4-dihydroquinolin-2(1H)-one]
29 | 0.1 to 1 | NCc1cc(N2CC[C@@H](C(=O)Nc3ccccc3)C2)ncn1 [Compound 1-102, (R)-1-(6-(Aminomethyl)pyrimidin-4-yl)-N-phenylpyrrolidine-3-carboxamide]
30 | 0.1 to 1 | NCc1cc(N2CCC(C(=O)Nc3ccccc3)CC2)ncn1 [Compound 1-103, 1-(6-(Aminomethyl)pyrimidin-4-yl)-N-phenylpiperidine-4-carboxamide]
31 | > 1 | NCc1cc(N2CCN(C(=O)c3ccccc3)CC2)ncn1 [Compound 1-104, (4-(6-(Aminomethyl)pyrimidin-4-yl)piperazin-1-yl)(phenyl)methanone]
32 | 0.1 to 1 | NCc1cc(N2CCN(C(=O)Nc3ccccc3)CC2)ncn1 [Compound 1-105, 4-(6-(Aminomethyl)pyrimidin-4-yl)-N-phenylpiperazine-1-carboxamide]
33 | 0.1 to 1 | NCc1cc(N2CCN(C(=O)Cc3ccccc3)CC2)ncn1 [Compound 1-106, 1-(4-(6-(Aminomethyl)pyrimidin-4-yl)piperazin-1-yl)-2-phenylethanone]
